Laboratory results from patent US9051350B2, “Macrocyclic antiproliferation agents and methods of treatment” (University of Florida Research Foundation, Inc., priority 2008, dated 2015).
*1 amine or outer side, *2 acyl side, *3 side chain or, on linkers, in order; H or OH if unused. Where a SMILES comes first, the peptide text is derived from it. [ ]: non-standard residue; d: D form. ξ: configuration not given here. dβ3hAla(2R-Me) = C[C@@H](N[*:1])[C@@H](C)C(=O)[*:2]; X1 = CN(C(Cc1ccccc1)C1=N[C@H](C(=O)[*:2])CS1)[*:1]; X2 = CC[C@@H](N[*:1])C1=NC(C(=O)[*:2])CS1; d(aThr) = C[C@@H](O)[C@@H](N)C(=O)O; dNMeL = CN[C@H](CC(C)C)C(=O)O; ξPhLac = O=C(O)C(O)Cc1ccccc1; NMeV = CN[C@H](C(=O)O)C(C)C

What was measured:
Assay in all cases: Cell viability assay (MTT), antiproliferative activity
Type in all cases: cell-based
[1] = test system: cervical carcinoma (HeLa); conditions: Homo sapiens, HeLa cells, 48 hours of incubation
Method: (§1) Cell culture medium was purchased from Invitrogen and fetal bovine serum (FBS) from Hyclone. Cells were propagated and maintained in DMEM medium (high glucose) supplemented with 10% FBS at 37° C. humidified air and 5% CO2.
(§2) HT29 colon adenocarcinoma cells were used for the bioassay-guided fractionation. To determine cell type selectivity, cells from four cancer cell lines (U2OS, HeLa, HT29 and IMR-32) were plated in 96-well format and incubated at 37° C. (5% CO2) for 24 hours. A dilution series of 1 in DMSO (1 μL) was then added, and after further 48 hours of incubation the cell viability was quantified using a standard assay kit based on MTT dye according to the manufacturer's instructions (Promega).

[2] = test system: colorectal adenocarcinoma (HT29); conditions: Homo sapiens, HT-29, HT29 cells, 48 hours of incubation
Method: as §1, §2

[3] = test system: neuroblastoma (IMR-32); conditions: Homo sapiens, IMR-32 cells, 48 hours of incubation
Method: as §1, §2

[4] = test system: human osteosarcoma (U2OS); conditions: U2OS cells, 48 hours of incubation
Method: as §1, §2

Compound: CC[C@H]1NC(=O)[C@@H]2CSC(=N2)C(Cc2ccccc2)N(C)C(=O)[C@@H]2CCCN2C(=O)[C@H](C(C)C)N(C)C(=O)C(Cc2ccccc2)OC(=O)[C@H](C)[C@@H](C)NC(=O)[C@@H]([C@@H](C)O)NC(=O)[C@@H](CC(C)C)N(C)C(=O)C2CSC1=N2 (stereo partly drawn) [Compound 1, grassypeptolide] (cyclo([NMeV]P[X1][X2][dNMeL][d(aThr)][dβ3hAla(2R-Me)][ξPhLac]))
- IC50 [1]: 1000 nM
- IC50 [2]: 1500 nM
- IC50 [3]: 4200 nM
- IC50 [4]: 2200 nM
